Assay results taken from patent US9221809B2 (MERCK SHARP & DOHME CORP., priority 2011, dated 2015).
pIC50: −log10 of the molar value. Structures can show the parent of a compound that is named as a salt.

biological target: IRAK4 (Homo sapiens (Human), UniProt Q9NWZ3); assay: IRAK4 kinase activity, IMAP fluorescence polarization assay; type: biochemical; details: 100 μM ATP, 0.5 nM GST tagged IRAK4; read-out: IRAK4 IC50
Procedure, shortened: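 GST-tagged IRAK4 at 0.5 nM phosphorylates 100 nM fluorescent peptide substrate with 100 μM ATP in pH 7.2 Tris buffer containing MgCl2, DTT and Tween 20, 30 min at 25 °C. Reaction stopped with IMAP binding reagent; phosphorylation read as increased fluorescence polarization.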

Sequence of IRAK4 (Q9NWZ3 whole entry): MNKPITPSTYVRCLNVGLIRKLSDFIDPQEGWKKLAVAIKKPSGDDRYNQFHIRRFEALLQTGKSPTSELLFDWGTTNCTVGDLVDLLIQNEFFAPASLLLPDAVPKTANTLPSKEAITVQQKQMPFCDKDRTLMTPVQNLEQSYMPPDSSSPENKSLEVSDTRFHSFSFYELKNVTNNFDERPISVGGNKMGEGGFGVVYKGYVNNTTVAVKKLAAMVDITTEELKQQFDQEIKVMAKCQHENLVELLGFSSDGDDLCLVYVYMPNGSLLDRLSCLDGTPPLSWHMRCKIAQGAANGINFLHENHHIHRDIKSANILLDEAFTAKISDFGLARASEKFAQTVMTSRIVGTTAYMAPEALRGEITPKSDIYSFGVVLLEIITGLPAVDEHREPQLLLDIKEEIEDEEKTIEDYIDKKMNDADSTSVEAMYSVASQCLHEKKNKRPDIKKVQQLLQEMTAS

Q: How did the pIC50 turn out when `O=c1[nH]c(N2CCOCC2)nc(N[C@@H]2CCCNC2)c1-c1nc2cccc(C(F)(F)F)c2s1` [Example 338, (R)-2-morpholino-6-(piperidin-3-ylamino)-5-(7-(trifluoromethyl)benzo[d]thiazol-2-yl)pyrimidin-4(3H)-one] was run?
A: 6.28

Q: How did the pIC50 turn out when `C[C@@H]1CC[C@@H](Nc2nc(N3CCOCC3)[nH]c(=O)c2-c2ccc3ccccc3n2)CN1` (racemic) [Example 121, 6-(methylpiperidin-3-yl)amino-2-morpholino-5-(quinolin-2-yl)pyrimidin-4(3H)-one.HCl] was run?
A: 7.42

Q: How did the pIC50 turn out when `O=c1[nH]c(N2CCN(c3cccnc3)CC2)nc(N[C@@H]2CCCNC2)c1-c1nc(-c2ccc(F)cc2)cs1` [Example 349, 5-[4-(4-fluorophenyl)-1,3-thiazol-2-yl]-6-[[(3R)-piperidin-3-yl]amino]-2-[4-(pyridin-3-yl)piperazin-1-yl]-3,4-dihydropyrimidin-4-one] was run?
A: 7.70

Q: With `O=c1[nH]c(N2CCOCC2)nc(N[C@@H]2CCCNC2)c1-c1nc2ccc(F)cc2s1` [Example 112, (R)-5-(6-fluorobenzo[d]thiazol-2-yl)-2-morpholino-6-(piperidin-3-ylamino)pyrimidin-4(3H)-one.HCl] as the molecule, how does the pIC50 read?
A: 7.34

Q: With `O=c1[nH]c(N2CCOCC2)nc(NCC(O)CO)c1-c1nc2ccccc2s1` (stereo not shown) [Example 246, 5-(1,3-benzothiazol-2-yl)-6-[(2,3-dihydroxypropyl)amino]-2-(morpholin-4-yl)-3,4-dihydropyrimidin-4-one] as the molecule, how does the pIC50 read?
A: 5.09

same assay, conditions: 100 μM ATP; read-out: IC50

Q: With `O=c1[nH]c(N2CCOCC2)nc(NCC2CCNCC2)c1-c1nc2ccccc2s1` [Example 271, 5-(1,3-benzothiazol-2-yl)-2-(morpholin-4-yl)-6-[(piperidin-4-ylmethyl)amino]-3,4-dihydropyrimidin-4-one; trifluoroacetic acid] as the molecule, how does the pIC50 read?
A: 6.48

Q: How did the pIC50 turn out when `O=c1[nH]c(N2CC3(COC3)C2)nc(N[C@@H]2CCCNC2)c1-c1nc2ccccc2s1` [Example 317, 5-(1,3-benzothiazol-2-yl)-2-[2-oxa-6-azaspiro[3.3]heptan-6-yl]-6-[[(3R)-piperidin-3-yl]amino]-3,4-dihydropyrimidin-4-one] was run?
A: 7.60

Q: With `CNC(=O)N1CCC(c2nc(N[C@@H]3CCCNC3)c(-c3nc4ccccc4s3)c(=O)[nH]2)CC1` [Example 240, (R)-4-[5-(1,3-benzo-thiazol-2-yl)-6-oxo-4-[[(3R)-piperidin-3-yl]amino]-1,6-dihydro-pyrimidin-2-yl]-N-methyl-piperidine-1-carboxamide] as the molecule, how does the pIC50 read?
A: 6.70

Q: With `O=c1[nH]c(N2CCOCC2)nc(N[C@@H]2C[C@@H]3CN[C@H]2C3)c1-c1nc2ccccc2s1` [Example 211, 6-((1S,4R,6R)-2-azabicyclo[2.2.1]heptan-6-ylamino)-5-(benzo[d]thiazol-2-yl)-2-morpholinopyrimidin-4(3H)-one] as the molecule, how does the pIC50 read?
A: 6.72

same assay, conditions: 100 μM ATP; read-out: IRAK4 IC50

Q: `O=c1[nH]c(N2CCC(c3cccc(F)n3)CC2)nc(N[C@@H]2CCCNC2)c1-c1ccc2ccccc2n1` [Example 193, (R)-2-(4-(6-fluoropyridin-2-yl)piperidin-1-yl)-6-(piperidin-3-ylamino)-5-(quinolin-2-yl)pyrimidin-4(3H)-one] was tested. Which pIC50 did it give?
A: 7.35

Q: With `Cc1cc(C2CCN(c3nc(N[C@@H]4CCCNC4)c(-c4ccc5ccccc5n4)c(=O)[nH]3)CC2)[nH]n1` [Example 192, (R)-2-(4-(3-methyl-1H-pyrazol-5-yl)piperidin-1-yl)-6-(piperidin-3-ylamino)-5-(quinolin-2-yl)pyrimidin-4(3H)-one] as the molecule, how does the pIC50 read?
A: 7.18

Q: `O=c1[nH]c(N2CCN(c3cccc(C(F)(F)F)c3)CC2)nc(N[C@@H]2CCCNC2)c1-c1nc2ccccc2s1` [Example 152, (R)-5-(benzo[d]thiazol-2-yl)-6-(piperidin-3-ylamino)-2-(4-(3-(trifluoromethyl)phenyl)piperazin-1-yl)pyrimidin-4(3H)-one] was tested. Which pIC50 did it give?
A: 7.38

Q: `CN(C)[C@@H]1CCN(c2nc(N[C@@H]3CCCNC3)c(-c3ccc4ccccc4n3)c(=O)[nH]2)C1` [Example 164, 2-((R)-3-(dimethylamino)pyrrolidin-1-yl)-6-((R)-piperidin-3-ylamino)-5-(quinolin-2-yl)pyrimidin-4(3H)-one] was tested. Which pIC50 did it give?
A: 7.21
